Results: PMC7062867, “Targeting the Oncogenic TBX2 Transcription Factor With Chromomycins” (Frontiers in Chemistry, 2020)

Legend:
TBX2 [1] = target: T1, TBX2 (Homo sapiens, UniProt Q13207); assay: microscale thermophoresis; also recovered by reverse affinity chromatography with UPLC-MS; type: binding
T1 sequence (Q13207 94-287): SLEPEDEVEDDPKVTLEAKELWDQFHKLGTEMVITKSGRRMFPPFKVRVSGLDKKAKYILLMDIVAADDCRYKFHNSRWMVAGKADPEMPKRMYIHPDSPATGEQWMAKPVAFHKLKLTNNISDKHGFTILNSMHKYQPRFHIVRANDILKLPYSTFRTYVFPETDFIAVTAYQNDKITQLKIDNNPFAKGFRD

TBX2 [2] = target: T1, TBX2; assay: microscale thermophoresis; type: binding

| Compound | Kd (TBX2 [1]) | Kd (TBX2 [2]) |
| --- | --- | --- |
| CO[C@@H]1[C@H](O)C[C@@H](O[C@@H]2C[C@H](Oc3cc4cc5c(c(O)c4c(O)c3C)C(=O)C(O[C@H]3C[C@@H](O[C@H]4C[C@@H](O[C@H]6C[C@](C)(O)[C@@H](OC(=O)C(C)C)[C@H](C)O6)[C@H](O)[C@@H](C)O4)[C@H](O)[C@@H](C)O3)C([C@H](OC)C(=O)[C@@H](O)[C@@H](C)O)C5)O[C@H](C)[C@@H]2OC(C)=O)O[C@@H]1C (some centres unmarked) [CA5, chromomycin A5] | 31.3 ± 23.3 µM |  |
| CO[C@@H]1[C@H](O)C[C@@H](O[C@@H]2C[C@H](Oc3cc4cc5c(c(O)c4c(O)c3C)C(=O)C(O[C@H]3C[C@@H](O[C@H]4C[C@@H](O[C@H]6C[C@](C)(O)[C@@H](OC(C)=O)[C@H](C)O6)[C@H](O)[C@@H](C)O4)[C@H](O)[C@@H](C)O3)C([C@H](OC)C(=O)[C@@H](O)[C@@H](C)O)C5)O[C@H](C)[C@@H]2OC(C)=O)O[C@@H]1C (some centres unmarked) [CA6, chromomycin A6] |  | 24.4 ± 13.6 µM |
